Data as given in patent US7511145B2 (Genelabs Technologies, Inc., priority 2003, dated 2009).

Molecular target: T1, HCV-NS5b (Hepatitis C virus genotype 1b, UniProt Q9WMX2)
T1 construct: (His)6 (C); made in house; host or cells: XL-1 cells (E. coli), IPTG-inducible plasmid, nickel-NTA purification
Assay: HCV-NS5b enzyme assay (incorporation of radiolabeled UTP)
Assay type: biochemical
Settings: for inhibition at 33 µM: enzyme inhibition at compound concentration of 33 uM; for inhibition at 100 µM: read-out: % inh@100, enzyme inhibition at compound concentration of 100 uM
Method in brief: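 Percent inhibition, background-corrected against uninhibited control, was measured at 100 and 33 uM compound. Incorporation of [3H]-UTP (10 μM each NTP) into biotinylated HCV-template RNA, 37° C for 2 h, pH 7.5, scintillation proximity. Enzyme: C-terminally truncated (21 aa), His6-tagged NS5b from XL-1.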

Structure (SMILES)	inhibition at 33 µM	inhibition at 100 µM
O=C(O)c1ccc2c(c1)nc(-c1ccc3nc(-c4cnn(-c5ccccc5)c4)ccc3c1)n2C1CCCCC1 [Compound 449, 1-cyclohexyl-2-[2-(1-phenyl-1H-pyrazol-4-yl)-quinolin-6-yl]-1H-benzoimidazole-5-carboxylic acid]	99.8%	101%
O=C(O)c1ccc2c(c1)nc(-c1ccc3nc(-c4ccc[nH]4)ccc3c1)n2C1CCCCC1 [Compound 450, 1-Cyclohexyl-2-[2-(1H-pyrrol-2-yl)-quinolin-6-yl]-1H-benzoimidazole-5-carboxylic acid]	96.5%	99.7%
O=C(O)c1ccc2c(c1)nc(-c1ccc3nc(-c4ccccc4)cc(NCCCn4ccnc4)c3c1)n2C1CCCCC1 [Compound 451, 1-cyclohexyl-2-[4-(3-imidazol-1-yl-propylamino)-2-phenyl-quinolin-6-yl]-1H-benzoimidazole-5-carboxylic acid]	76.3%	95.6%
COc1cc(O)c(-c2ccc3cc(-c4nc5cc(C(=O)O)ccc5n4C4CCCCC4)ccc3n2)c(OC)c1 [Compound 452, 1-cyclohexyl-2-[2-(2-hydroxy-4,6-dimethoxy-phenyl)-quinolin-6-yl]-1H-benzoimidazole-5-carboxylic acid]	102%	102%
COc1ccc(-c2ccco2)c(-c2ccc3cc(-c4nc5cc(C(=O)O)ccc5n4C4CCCCC4)ccc3n2)c1 [Compound 454, 1-cyclohexyl-2-[2-(2-furan-2-yl-5-methoxy-phenyl)-quinolin-6-yl]-1H-benzoimidazole-5-carboxylic acid]	98.3%	101%
COc1ccc(-c2ccc(F)cc2)c(-c2ccc3cc(-c4nc5cc(C(=O)O)ccc5n4C4CCCCC4)ccc3n2)c1 [Compound 455, 1-Cyclohexyl-2-[2-(4′-fluoro-4-methoxy-biphen-2-yl)-quinolin-6-yl]-1H-benzoimidazole-5-carboxylic acid]	100%	99.8%
CCOc1ccc(-c2ccc(OC)cc2-c2ccc3cc(-c4nc5cc(C(=O)O)ccc5n4C4CCCCC4)ccc3n2)cc1 [Compound 456, 1-cyclohexyl-2-[2-(4′-ethoxy-4-methoxy-biphen-2-yl)-quinolin-6-yl]-1H-benzoimidazole-5-carboxylic acid]	100%	99.7%
O=C(O)c1ccc2c(c1)nc(-c1ccc3nc(C(c4ccccc4)c4ccccc4)ccc3c1)n2C1CCCCC1 [Compound 457, 2-(2-benzhydryl-quinolin-6-yl)-1-cyclohexyl-1H-benzoimidazole-5-carboxylic acid]	98.2%	98.3%
CN(C)c1ccc(-c2nc3ccc(-c4nc5cc(C(=O)O)ccc5n4C4CCCCC4)cc3nc2-c2ccc(N(C)C)cc2)cc1 [Compound 458, 2-[2,3-Bis-(4-dimethylaminotphenyl)quinoxalin-6-yl]-1-cyclohexyl-1H-benzimidazole-5-carboxylic acid]	100%	104%
O=C(O)c1ccc2c(c1)nc(-c1ccc3nc(-c4ccc5c(c4)CCCC5)ccc3c1)n2C1CCCCC1 [Compound 459, 1-cyclohexyl-2-[2-(5,6,7,8-tetrahydro-naphthalen-2-yl)-quinolin-6-yl]-1H-benzoimidazole-5-carboxylic acid]	99.5%	99.8%
O=C(O)c1ccc2c(c1)nc(-c1ccc3nc(-c4c(O)ccc5ccccc45)ccc3c1)n2C1CCCCC1 [Compound 460, 1-cyclohexyl-2-[2-(2-hydroxy-naphthalen-1-yl)-quinolin-6-yl]-1H-benzoimidazole-5-carboxylic acid]	101%	102%
COCCOc1ccc(-c2ccccc2)c(-c2ccc3cc(-c4nc5cc(C(=O)O)ccc5n4C4CCCCC4)ccc3n2)c1 [Compound 461, 1-Cyclohexyl-2-{2-[4-(2-methoxy-ethoxy)-biphen-2-yl]-quinolin-6-yl}-1H-benzoimidazole-5-carboxylic acid]	97.9%	96.7%
